Source: US10941157B2, “Pesticidal compositions and uses thereof” (Gilead Apollo, LLC, priority 2015, dated 2021)
Values after ≈ are worked out from the molar mass of the structure shown. Like-named read-outs stand apart in the source and are kept apart here.

Legend:
Assay type in all cases: cell-based
[1] = tested on: Botrtyis cinerea (Bc); assay: In vitro pathogen growth inhibition assay, Bc; conditions: 48 h
Outline: (§1)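 Spores in 17% V8 liquid medium, or 1.5 mm Rs mycelial plugs in ¼ PDB, incubated with compound; final concentration checked by OD600 for precipitation. OD readings at 24 and 48 h, blank-subtracted, plus visual ratings; value is concentration giving ≥90% growth inhibition.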

[2] = tested on: Collectotrichum graminicola (Cg); assay: In vitro pathogen growth inhibition assay, Cg; conditions: 48 h
Outline: as §1

[3] = tested on: Diplodia maydis (Dm); assay: In vitro pathogen growth inhibition assay, Dm; conditions: Stenocarpella maydis, 48 h
Outline: as §1

[4] = tested on: Fusarium moniliforme (Fm); assay: In vitro pathogen growth inhibition assay, Fm; conditions: Fusarium verticillioides
Outline: as §1

[5] = tested on: Fusarium virguliforme (Fv); assay: In vitro pathogen growth inhibition assay, Fv
Outline: as §1

[6] = tested on: Phytophthora capsici (Pc); assay: In vitro pathogen growth inhibition assay, Pc; conditions: 48 h
Outline: as §1

[7] = tested on: Rhizoctonia solani (Rs); assay: In vitro pathogen growth inhibition assay, Rs (mycelial plugs); conditions: Rhizoctonia solani, 48 h
Outline: as §1

[8] = tested on: Septoria tritici (St); assay: In vitro pathogen growth inhibition assay, St; conditions: Zymoseptoria tritici, 48 h
Outline: as §1

[9] = ≥90% growth inhibition, 48 hours, vs 2% DMSO control, read-out: Compound Concentration (ppm) sufficient for ≥90% inhibition of Bc
[10] = ≥90% growth inhibition, 48 hours, vs 2% DMSO control, read-out: Compound Concentration (ppm) sufficient for ≥90% inhibition of Cg
[11] = ≥90% growth inhibition, 48 hours, vs 2% DMSO control, read-out: Compound Concentration (ppm) sufficient for ≥90% inhibition of Dm
[12] = ≥90% growth inhibition, 48 hours, vs 2% DMSO control, read-out: Compound Concentration (ppm) sufficient for ≥90% inhibition of Fm
[13] = ≥90% growth inhibition, 48 hours, vs 2% DMSO control, read-out: Compound Concentration (ppm) sufficient for ≥90% inhibition of Fv
[14] = ≥90% growth inhibition, 48 hours, vs 2% DMSO control, read-out: Compound Concentration (ppm) sufficient for ≥90% inhibition of Pc
[15] = ≥90% growth inhibition, mycelial plugs, 48 hours, vs 2% DMSO control, read-out: Compound Concentration (ppm) sufficient for ≥90% inhibition of Rs
[16] = ≥90% growth inhibition, 48 hours, vs 2% DMSO control, read-out: Compound Concentration (ppm) sufficient for ≥90% inhibition of St
[17] = ≥90% inhibition, 48 hours vs 2% DMSO control, read-out: Compound Concentration (ppm) sufficient for ≥90% inhibition of growth, Bc
[18] = ≥90% inhibition, 48 hours vs 2% DMSO control, read-out: Compound Concentration (ppm) sufficient for ≥90% inhibition of growth, Cg
[19] = ≥90% inhibition, 48 hours vs 2% DMSO control, read-out: Compound Concentration (ppm) sufficient for ≥90% inhibition of growth, Dm
[20] = ≥90% inhibition, 48 hours vs 2% DMSO control, read-out: Compound Concentration (ppm) sufficient for ≥90% inhibition of growth, Fm
[21] = ≥90% inhibition, 48 hours vs 2% DMSO control, read-out: Compound Concentration (ppm) sufficient for ≥90% inhibition of growth, Fv
[22] = ≥90% inhibition, 48 hours vs 2% DMSO control, read-out: Compound Concentration (ppm) sufficient for ≥90% inhibition of growth, Pc
[23] = ≥90% inhibition, mycelial plugs, 48 hours vs 2% DMSO control, read-out: Compound Concentration (ppm) sufficient for ≥90% inhibition of growth, Rs
[24] = ≥90% inhibition, 48 hours vs 2% DMSO control, read-out: Compound Concentration (ppm) sufficient for ≥90% inhibition of growth, St

| IC90 [1, 9] [µg/mL] | IC90 [2, 10] [µg/mL] | IC90 [3, 11] [µg/mL] | IC90 [4, 12] [µg/mL] | IC90 [5, 13] [µg/mL] | IC90 [6, 14] [µg/mL] | IC90 [7, 15] [µg/mL] | IC90 [8, 16] [µg/mL] | IC90 [1, 17] [µg/mL] | IC90 [2, 18] [µg/mL] | IC90 [3, 19] [µg/mL] | IC90 [4, 20] [µg/mL] | IC90 [5, 21] [µg/mL] | IC90 [6, 22] [µg/mL] | IC90 [7, 23] [µg/mL] | IC90 [8, 24] [µg/mL] | Structure (SMILES) | also measured |
| --- | --- | --- | --- | --- | --- | --- | --- | --- | --- | --- | --- | --- | --- | --- | --- | --- | --- |
|  |  |  |  |  |  |  |  | ≥ 0.4 | ≥ 0.08 | ≥ 0.08 | 0.08 (≈ 0.125 µM) | 0.4 (≈ 0.624 µM) | 10 (≈ 15.6 µM) | 0.08 (≈ 0.125 µM) | ≥ 2 | COc1ccc(F)cc1[C@H](Cn1c(=O)n(C(C)(C)C(=O)N2CCCC2)c(=O)c2c(C)c(-n3nccn3)sc21)OC1CCOCC1 [Compound I-037] |  |
|  |  |  |  |  |  |  |  | 2 (≈ 3.11 µM) | 10 (≈ 15.6 µM) | 10 (≈ 15.6 µM) | 0.4 (≈ 0.622 µM) | 2 (≈ 3.11 µM) | > 50 | 10 (≈ 15.6 µM) | > 50 | COc1ccc(F)cc1[C@H](Cn1c(=O)n(C(C)(C)C(=O)N2CC(O)C2)c(=O)c2c(C)c(-n3nccn3)sc21)OC1CCOCC1 [Compound I-114] |  |
| 2 (≈ 3.08 µM) | 2 (≈ 3.08 µM) | ≥ 50 | 2 (≈ 3.08 µM) | 2 (≈ 3.08 µM) | ≥ 50 | 2 (≈ 3.08 µM) | > 50 |  |  |  |  |  |  |  |  | COc1ccc(F)cc1[C@H](Cn1c(=O)n(C(C)(C)C(=O)NC(C)C)c(=O)c2c(C)c(-n3cccn3)sc21)OCCS(C)(=O)=O [Compound I-286] |  |

The next lines start with the compound.

| Structure (SMILES) | IC90 [1, 9] [µg/mL] | IC90 [2, 10] [µg/mL] | IC90 [3, 11] [µg/mL] | IC90 [4, 12] [µg/mL] | IC90 [5, 13] [µg/mL] | IC90 [6, 14] [µg/mL] | IC90 [7, 15] [µg/mL] | IC90 [8, 16] [µg/mL] | IC90 [1, 17] [µg/mL] | IC90 [2, 18] [µg/mL] | IC90 [3, 19] [µg/mL] | IC90 [4, 20] [µg/mL] | IC90 [5, 21] [µg/mL] | IC90 [6, 22] [µg/mL] | IC90 [7, 23] [µg/mL] | IC90 [8, 24] [µg/mL] | also measured |
| --- | --- | --- | --- | --- | --- | --- | --- | --- | --- | --- | --- | --- | --- | --- | --- | --- | --- |
| COc1ccccc1[C@H](Cn1c(=O)n(C(C)(C)C(=O)NC(C)C)c(=O)c2c(C)c(-n3nccn3)sc21)O[C@H]1CC[C@@H](O)CC1 [Compound I-265] | 0.4 (≈ 0.64 µM) | 2 (≈ 3.2 µM) | 2 (≈ 3.2 µM) | 0.08 (≈ 0.128 µM) | 0.4 (≈ 0.64 µM) | ≥ 50 | 0.08 (≈ 0.128 µM) | ≥ 50 |  |  |  |  |  |  |  |  |  |
| COc1ccc(F)cc1[C@H](Cn1c(=O)n(C(C)C(=O)N2CCCC2)c(=O)c2c(C)c(-n3cccn3)sc21)OC(C)C (some centres unmarked) [Compound I-062] |  |  |  |  |  |  |  |  | 0.4 (≈ 0.685 µM) | 0.4 (≈ 0.685 µM) | 1.2 (≈ 2.06 µM) | 0.08 (≈ 0.137 µM) | 0.4 (≈ 0.685 µM) | 50 (≈ 85.7 µM) | 2 (≈ 3.43 µM) | 50 (≈ 85.7 µM) |  |
| COc1ccc(F)cc1[C@H](Cn1c(=O)n([C@@H](C)C(=O)N2CCCC2)c(=O)c2c(C)c(-n3cccn3)sc21)OCCC#N [Compound I-313] | > 50 | 50 (≈ 84.1 µM) | > 50 | 2 (≈ 3.36 µM) | 50 (≈ 84.1 µM) | > 50 | 50 (≈ 84.1 µM) | > 50 |  |  |  |  |  |  |  |  |  |
| COc1ccc(F)cc1[C@H](Cn1c(=O)n(C(C)(C)C(=O)N2CCCC2)c(=O)c2c(C)c(-n3cccn3)sc21)OC1CCOCC1 [Compound I-045] |  |  |  |  |  |  |  |  | 2 (≈ 3.13 µM) | ≥ 0.4 | ≥ 2 | 0.08 (≈ 0.125 µM) | 10 (≈ 15.6 µM) | > 50 | 2 (≈ 3.13 µM) | > 50 |  |
| CCO[C@@H](Cn1c(=O)n(C(C)(C)C(=O)N2CCCC2)c(=O)c2c(C)c(-n3cccn3)sc21)c1cc(F)ccc1OC [Compound I-053] |  |  |  |  |  |  |  |  | 0.4 (≈ 0.685 µM) | 2 (≈ 3.43 µM) | ≥ 2 | 0.08 (≈ 0.137 µM) | 0.4 (≈ 0.685 µM) | > 50 | 2 (≈ 3.43 µM) | ≥ 50 |  |
| COc1ccc(F)cc1[C@H](Cn1c(=O)n(C(C)C(=O)NC(C)C)c(=O)c2c(C)c(-n3cccn3)sc21)OC(C)C (some centres unmarked) [Compound I-126] |  |  |  |  |  |  |  |  | 2 (≈ 3.5 µM) | 2 (≈ 3.5 µM) | 2 (≈ 3.5 µM) | 0.4 (≈ 0.7 µM) | 1.2 (≈ 2.1 µM) | 50 (≈ 87.5 µM) | 2 (≈ 3.5 µM) | 50 (≈ 87.5 µM) |  |
| CCNC(=O)C(C)(C)n1c(=O)c2c(C)c(-n3nccn3)sc2n(C[C@@H](OC(C)=O)c2cc(F)ccc2OC)c1=O [Compound I-318] |  |  |  |  |  |  |  |  |  |  |  |  |  |  |  |  | IC90 ([1]; concentration sufficient to ≥90% inhibition of growth, 48 hours vs 2% DMSO control, read-out: Compound Concentration (ppm) for ≥90% inhibition, Bc): 50 µg/mL (≈ 87.3 µM); IC90 ([2]; concentration sufficient to ≥90% inhibition of growth, 48 hours vs 2% DMSO control, read-out: Compound Concentration (ppm) for ≥90% inhibition, Cg): > 50 µg/mL; IC90 ([3]; concentration sufficient to ≥90% inhibition of growth, 48 hours vs 2% DMSO control, read-out: Compound Concentration (ppm) for ≥90% inhibition, Dm): > 50 µg/mL; IC90 ([4]; concentration sufficient to ≥90% inhibition of growth, 48 hours vs 2% DMSO control, read-out: Compound Concentration (ppm) for ≥90% inhibition, Fm): 10 µg/mL (≈ 17.5 µM); IC90 ([5]; concentration sufficient to ≥90% inhibition of growth, 48 hours vs 2% DMSO control, read-out: Compound Concentration (ppm) for ≥90% inhibition, Fv): > 50 µg/mL; IC90 ([6]; concentration sufficient to ≥90% inhibition of growth, 48 hours vs 2% DMSO control, read-out: Compound Concentration (ppm) for ≥90% inhibition, Pc): > 50 µg/mL; IC90 ([7]; concentration sufficient to ≥90% inhibition of growth, 48 hours vs 2% DMSO control, read-out: Compound Concentration (ppm) for ≥90% inhibition, Rs): > 50 µg/mL; IC90 ([8]; concentration sufficient to ≥90% inhibition of growth, 48 hours vs 2% DMSO control, read-out: Compound Concentration (ppm) for ≥90% inhibition, St): > 50 µg/mL |
